Results on two compounds are retold here after patent publication US9290745B2, “Luciferase biosensor” (PROMEGA CORPORATION, priority 2003, dated 2016).

The target in the assay is T1, Luc2-CaM fusion (UniProt P08659+P0DP23, D3I/E2D/N119G/N50D).
T1 construct: made in house; host or cells: cell-free: TnT Coupled Reticulocyte Lysate System
The assay can be described thus: C-terminal modulated luciferase fusion system (calmodulin). The assay is classed as biochemical, human.

Take `[Ca+2].[Cl-].[Cl-]` [Ca^+2, CaCl2]: under “1 μl 100 mM CaCl2 added after EGTA”, the “effect on EGTA-induced increase in luminescence” value is “can be reversed”.

Consider `O=C(O)CN(CCOCCOCCN(CC(=O)O)CC(=O)O)CC(=O)O` [EGTA], for which the increase of luminescence result (EGTA final concentration 3 mM, Luc2-CaM TnT lysate in LAR) is recorded as “about 9 fold”.
